The numbers were not newly measured in US20180185286A1, “POROUS MATERIALS CONTAINING COMPOUNDS INCLUDING […] ACTIVE SPECIES” (NOVARTIS PHARMA AG, priority 2014, published 2018), which cites them from elsewhere.

For this series the following is noted: in the absence of being incorporated within a porous material.

In brackets after ≈: the same amount, converted by molar mass.

On to `O=C(O)c1ccc(-n2nc(-c3ccccc3O)nc2-c2ccccc2O)cc1` [deferasirox], for which the aqueous solubility was 38 µg/mL (≈ 102 µM).

Consider `O=C1[C@H](CC[C@H](O)c2ccc(F)cc2)[C@@H](c2ccc(O)cc2)N1c1ccc(F)cc1` [ezetimibe], for which the aqueous solubility entry is listed as “essentially insoluble in aqueous solutions”.

On to `CCOC(=O)C1=C(C)NC(C)=C(C(=O)OC)C1c1cccc(Cl)c1Cl` (centres unmarked) [felodipine], for which the aqueous solubility is 19 µg/mL (≈ 49.4 µM).

As to `CC(C)Cc1ccc(C(C)C(=O)O)cc1` (centres unmarked) [ibuprofen], the aqueous solubility was 38 µg/mL (≈ 184 µM).

As for `COc1ccc2c(c1)c(CC(=O)O)c(C)n2C(=O)c1ccc(Cl)cc1` [indomethacin], the aqueous solubility was 2.5 µg/mL (≈ 6.99 µM).

In general, aqueous solubility refers to the dissolved amount per volume that the medium holds.
